Results: a melting point compilation (Tetko et al.)

melting point | SMILES
147 °C | NC(=O)Nc1ccccc1
139 °C | CCn1c2ccc(Br)cc2c2cc(Br)ccc21
57 to 59 °C | CC(C)(C)OC(=O)N1CCN(Cc2ccc(C=O)cc2)CC1
168 to 171 °C | CC(C)(C)NC(=S)NC(C)(C)C
13 °C | CC(CCC(=O)O)c1ccccc1 (stereo unspecified)
200 °C | Brc1cc(Br)c(Oc2c(Br)c(Br)c(Br)c(Br)c2Br)cc1Br
186 °C | O=C1c2ccccc2C(=O)c2c(Br)cccc21
60.5 to 61.5 °C | O=C(Oc1c(F)c(F)c(F)c(F)c1F)c1cccc(Oc2ccccn2)c1
118 °C | Cc1cc(N=Nc2ccccc2)c(C(C)C)cc1[N+]([O-])=Nc1ccccc1
93.3 °C | OCCNC(=S)C(=S)NCCO
37.5 °C | CCCCCCCCCCCCCCCCCCCCBr
97 °C | COc1ccc(C(=O)c2cccc(Br)c2)cc1OC
159 °C | Nc1ccc2nccnc2c1
198 °C | CC(=O)c1nn(-c2ccc(F)cc2)c(=N)s1
41 °C | CC12CCC(C(C(=O)Oc3ccccc3)C1)C2(C)C (stereo unspecified)
91.5 °C | COc1cc(C(=O)c2ccc(Cl)cc2)cc(OC)c1OCCN1CCOCC1
83 to 85 °C | O=C1c2ccc([N+](=O)[O-])cc2C(=O)N1CCCCCCBr
61.5 °C | CC(C)(C)OC(=O)N[C@H](COCc1ccccc1)C(=O)O
95 to 97 °C | N#CCc1ccc(OS(=O)(=O)c2ccc(Cl)cc2)cc1
119 °C | COc1cc(C(=O)OCc2cccc(COC(=O)c3cc(OC)c(OC)c(OC)c3)n2)cc(OC)c1OC
187 °C | Cc1ccc(-c2csc(/C(C#N)=N\Nc3cc(Cl)ccc3Cl)n2)cc1
14.5 °C | COc1ccc(O)c(C=O)c1
117 °C | COc1cc(CO)cc(Cl)c1O
186 to 188 °C | Cc1ccc(NC(N)=S)cc1

melting point | SMILES
193 °C | COc1cc2cncc(Cc3ccccc3)c2cc1O
223 to 227 °C | Cc1ccc(C(N)CC(=O)O)cc1 (stereo unspecified)
100 to 101 °C | CCOC(=O)c1cnc2cc(C)nn2c1C
37 °C | C[Si](C)(Cl)CC[Si](C)(C)Cl
150 °C | O=C(c1ccc(Cl)cc1)c1noc(-c2cccc3ccccc23)c1S(=O)(=O)c1ccccc1
42 to 44 °C | CCOC(=O)c1ccsc1N
148 to 150 °C | CCC1CC(NC(=O)CBr)C(C)(C)N1O (stereo unspecified)
187 to 188 °C | O=C(O)c1ccc(-c2ccco2)s1
127 °C | CCC1(O)CCC2(C)C(CCC3C2CCC2(C)C3CCC23OCCO3)C1 (stereo unspecified)
342 °C | CCOC(=O)c1c(C)[nH]c2cc3[nH]c(C)c(C(=O)OCC)c3cc12
320 to 322 °C | O=C1c2ccccc2C(=O)c2c1cc1ccccc1c2O
65 °C | Cc1ccc2ccc3ccccc3c2c1
167 °C | Clc1ccc(Cn2c(CN3CCCC3)nc3ccccc32)cc1
183 to 185 °C | CC(C)(C)c1cc(C(=O)NN)n(Cc2ccc(F)cc2)n1
169 °C | O=C(NC(Cc1cccs1)C(=O)O)OCC1c2ccccc2-c2ccccc21 (stereo unspecified)
55 °C | CC1=C(C)C(=O)C=CC1=O
56.5 °C | Cc1cc(O)cc(Br)c1
66 to 67 °C | N#Cc1ccc(-c2ccco2)cc1
107 to 109 °C | CCCNC(N)=O
234 °C | O=C(O)/C=C/c1cc2c(cc1CC(=O)O)NC(=O)CC2
145 °C | NS(=O)(=O)c1cc(S(=O)(=O)c2cccc(O)c2)cs1
180 to 181 °C | O=C(O)c1cccc(-n2cccc2)c1
84 to 90 °C | CC(=O)c1ccc(N2CCCCC2)cc1
35 to 38 °C | COC(=O)c1cscc1N

melting point | SMILES
195 °C | C=C(C)C1Cc2c(cc(O)c3c2OC2COc4cc(OC)c(OC)cc4C2C3=O)O1 (stereo unspecified)
17 °C | CC1(C)CC(N)CC(C)(C)N1
10 to 11 °C | CC(C)N(C=O)C(C)C
116 to 117 °C | CCOC(=O)C(C#N)=Cc1ccc(-c2ccccc2)o1
162 to 165 °C | O=C(O)Cc1c[nH]c2ccc(O)cc12
111 to 112 °C | Cc1nc(-c2ccc(S(=O)(=O)Cl)cc2)cs1
101 °C | N#Cc1ncc(Cl)cc1Cl
203 °C | NC(=O)C(=O)NC(c1ccccc1)C1(c2ccccc2)OCCO1 (stereo unspecified)
240 °C | O=S(=O)(O)CCCNC(CO)(CO)CO
118 °C | CCC(C=C1C(=O)C2(C)CCC1C2(C)C)C(=O)O (stereo unspecified)
54 to 56 °C | O=Cc1cccc(Cn2cncn2)c1
113 to 114 °C | O=Cc1cc(F)cc2c1OCOC2
238 °C | CC(=O)OCC(=O)[C@@]1(O)CC[C@H]2[C@@H]3CCC4=CC(=O)C=C[C@]4(C)[C@H]3[C@@H](O)C[C@@]21C
30 °C | CCCCCC(O)C=CC1C(O)CC(O)C1CC=CCCCC(=O)O (stereo unspecified)
80 °C | CC1(C)OC(=O)C2CCCCC21 (stereo unspecified)
39 to 122 °C | CCCCCc1ccc(OC(=O)c2ccc(OC(=O)c3ccc(CCCCC)cc3)cc2Cl)cc1
224 to 225 °C | O=C(O)c1cccc2c1OCO2
177 °C | CC1=CC=CC2(C)Cc3ccccc3C(=O)N12 (stereo unspecified)
102 °C | OCC1NC(CO)C(O)C1O (stereo unspecified)
38 to 39 °C | O=C(O)CCC(F)(F)C(F)(F)C(F)(F)F
300 °C | CN(c1ccc2cc3ccc4c(c3nc2c1)COCN4)S(C)(=O)=O
106 to 107 °C | Nc1ccccc1-n1ccnc1
158 °C | NNC(=O)c1cccc(O)c1
215 °C | CC(=O)Oc1ccc2cc(OC(C)=O)ccc2c1

melting point | SMILES
61.5 °C | Fc1cccc(P(c2cccc(F)c2)c2cccc(F)c2)c1
-24 °C | CCCCCCCCCc1ccccc1
29 °C | O=C1CCSc2ccccc21
201 °C | O=C(O)c1ccc(O)c(O)c1
13.7 °C | CN1CCC(CCCC2CCN(C)CC2)CC1
7 °C | Cc1c(F)cccc1[N+](=O)[O-]
223 °C | O=c1nn[nH]c2ccccc12
108 to 110 °C | Clc1ncnc2sc3c(c12)CCC3
87 °C | CC(C)=C1CC(=C(C)C)C1=O
101 °C | Oc1ccc2cccc(Cl)c2c1
154 °C | CC(=O)NC(=O)NC(C)=O
261 to 267 °C | NC(Cc1c[nH]c2ccc(Br)cc12)C(=O)O (racemic)
34 to 39 °C | O=S(=O)(Cl)c1occc1C1OCCO1
115 °C | O=C1OC(=O)c2cc([N+](=O)[O-])ccc21
118 °C | CC1=C(C(=O)OCc2ccccc2)C(c2ccccc2)NC(=O)N1C (stereo unspecified)
78 °C | O=C(CC(=O)c1ccccc1)c1ccccc1
132 °C | CC(C)CCCC(C)C1CCC2C3CCC4=CC(O)CCC4(C)C3CCC12C (stereo unspecified)
60 °C | CNC(=O)C(C)(C(C)C)C(C)C
93 to 94 °C | O=C(Cl)c1csc(-c2cccs2)n1
93 °C | Cc1ccc(C=C2C(=O)OC(C)(C)OC2=O)o1
175 °C | OCC1CCC(n2cnc3c(O)ncnc32)O1 (stereo unspecified)
83.5 °C | ON=Cc1ccc(F)cc1
157 to 159 °C | CC1(C)C(C=NO)=[N+]([O-])C(C)(C)N1O
120 to 122 °C | O=[N+]([O-])c1cccc2scc(Br)c12

melting point | SMILES
87 to 89 °C | N#CCS(=O)(=O)c1ccc(F)cc1
212 °C | Nc1ncnc2c1ncn2C1(CO)OC(CO)C(O)C1O (stereo unspecified)
87 to 89 °C | Nc1cccnc1Oc1ccccc1F
118 to 121 °C | NNC(=O)COc1ccccc1CSc1ccc(Cl)cc1
270 °C | Cn1c(=O)c(C2=NNC(=O)C2=NNc2ccccc2Br)c(O)c2ccccc21
180 °C | Oc1ccc(Br)cn1
149 °C | COc1ccc(C(C)=CC(=O)O)c(OC)c1
225 °C | FC12CC3CC(CC(C3)C1)C2
123 to 125 °C | CCSC1=NN=C(SCC)NN1
143 °C | CC12C=CCC1C1CCC3CC(O)CCC3(C)C1CC2 (stereo unspecified)
268 to 270 °C | CC1=CC2(C)C3C(=O)OC(=O)C3C1C1C(=O)OC(=O)C12 (stereo unspecified)
9.5 °C | CCCCCCCCC=CCCCCCCCC(=O)OC
285 °C | O=C1Nc2ccc(I)cc2C1=O
33 to 36 °C | O=C(O)C(F)(F)C(F)(F)C(F)(F)C(F)(F)C(F)(F)C(F)(C(F)(F)F)C(F)(F)F
300 °C | Nc1nc(S)nc(S)n1
258 to 260 °C | COc1ccc(C=C2SC(=NN=CC(C)C)NC2=O)cc1
300 °C | Cc1ccc2c(O)c(-c3ccccc3)c(=O)[nH]c2c1
61 °C | Cc1ccc(C)c(OCCCC(C)(C)C(=O)O)c1
18 °C | CC1=CCC(=O)O1
166 to 168 °C | NC(=S)Nc1cc(C(F)(F)F)cc(C(F)(F)F)c1
88 to 93 °C | COc1ccc(C=CC(=O)c2ccc(F)cc2)cc1OC
173 °C | Cc1cc(O)nc(C(C)C)n1

SMILES | melting point
NC(=O)CN1CCCC1=O | 152 °C
CCCSP(=O)(OCC)Oc1ccc(Br)cc1Cl (stereo unspecified) | < 25 °C
CC12CCC3C(CCC4CC(O)CCC43C)C1CCC2O (stereo unspecified) | 167 °C
CCOP(=S)(OCC)SCSP(=S)(OCC)OCC | -12 °C
c1ccc2c(c1)c1cccc3c4c5ccccc5c5cccc(c2c13)c54 | 305 °C
C=CCc1ccccc1 | -40 °C
O=Cc1cc([N+](=O)[O-])cc([N+](=O)[O-])c1O | 72.5 °C
O=C1C=CC(=O)c2ccccc21 | 128 °C
O=C(O)C(O)c1ccc(Cl)cc1 (stereo unspecified) | 120 °C
CC(C)c1cccc(C(C)C)c1O | 18 °C
O=CC=O | 15 °C
c1nnn[nH]1 | 157 °C
O=C(Cl)CCl | -22 °C
